# Assays:
# [1] = tested on: Other Candida species (C. lipolytica, C. sake, C. sphaerica, C. norvegica); experiment: In vitro antifungal susceptibility CLSI M27-A2 (MIC, MFC); type: cell-based; conditions: Other Candida spp. (4)
# A. niger = experiment: In vitro antifungal susceptibility CLSI M38-A (MIC); type: cell-based; conditions: 5 isolates
# Procedure: (§1) In addition, MFC ([…]) was done for each species. The geometric mean (GM) was calculated for each isolate using all three results. All testing was performed in triplicate to verify the reproducibility of the data.
# (§2) A total of 31 isolates of Aspergillus were evaluated. This included six different species of Aspergillus which included six strains of A. fumigatus, and 5 strains of A. flavus, A. terreus, A. niger and A. glaucus.
# A. flavus = experiment: as above; type: cell-based; conditions: 5 isolates
# Procedure: as §1, §2
# A. terreus = experiment: as above; type: cell-based; conditions: 5 isolates
# Procedure: as §1, §2
# A. fumigatus = experiment: as above; type: cell-based; conditions: A. fumigates, 6 isolates
# Procedure: as §1, §2
# A. versicolor = experiment: as above; type: cell-based; conditions: 5 isolates
# Procedure: as §1, §2
# A. glaucus = experiment: as above; type: cell-based; conditions: 5 isolates
# Procedure: as §1, §2
# C. parapsilosis = experiment: In vitro antifungal susceptibility CLSI M27-A2 (MIC, MFC); type: cell-based; conditions: C. parapsilosis (10)
# C. lusitaniae = experiment: as above; type: cell-based; conditions: C. lusitaniae (10)
# [2] = 28-day toxicology in rats (clinical chemistry, NOAEL)
# [3] = rat sera, amphotericin B 0.5 mg, intravenously three days a week
# [4] = rat sera, amphotericin B 1.0 mg, intravenously three days a week
# [5] = rat sera, amphotericin B 1.5 mg, intravenously three days a week
compound,measurement,setting,value
"C[C@@H]1[C@H](O)[C@@H](C)/C=C/C=C/C=C/C=C/C=C/C=C/C=C/[C@H](O[C@@H]2O[C@H](C)[C@@H](O)[C@H](N)[C@@H]2O)C[C@@H]2O[C@](O)(C[C@@H](O)C[C@@H](O)[C@H](O)CC[C@@H](O)C[C@@H](O)CC(=O)O[C@H]1C)C[C@H](O)[C@H]2C(=O)O [Amphotericin B, amphotericin B]",GM (geometric mean MIC),[1],0.95 µg/mL
same,MFC,[1],2 µg/mL
same,MIC50,[1],1 µg/mL
same,MIC Range,[1],0.5 to 1.0 µg/mL
same,GM,A. niger,0.8 µg/mL
same,MIC50,A. niger,1 µg/mL
same,MIC Range,A. niger,0.5 to 1 µg/mL
same,GM,A. flavus,4.8 µg/mL
same,MIC50,A. flavus,2 µg/mL
same,MIC Range,A. flavus,2 to 16 µg/mL
same,GM,A. terreus,2.0 µg/mL
same,MIC50,A. terreus,2 µg/mL
same,MIC Range,A. terreus,2 to 4 µg/mL
same,GM,A. fumigatus,1.58 µg/mL
same,MIC50,A. fumigatus,2 µg/mL
same,MIC Range,A. fumigatus,0.5 to 2 µg/mL
same,GM,A. versicolor,0.9 µg/mL
same,MIC50,A. versicolor,1 µg/mL
same,MIC Range,A. versicolor,0.25 to 2 µg/mL
same,GM,A. glaucus,0.7 µg/mL
same,MIC50,A. glaucus,0.5 µg/mL
same,MIC Range,A. glaucus,0.25 to 1 µg/mL
same,GM (geometric mean MIC),C. parapsilosis,0.7 µg/mL
same,MFC,C. parapsilosis,2 µg/mL
same,MIC50,C. parapsilosis,0.5 µg/mL
same,MIC90,C. parapsilosis,1 µg/mL
same,MIC Range,C. parapsilosis,0.5 to 1.0 µg/mL
same,GM (geometric mean MIC),C. lusitaniae,0.575 µg/mL
same,MFC,C. lusitaniae,0.5 µg/mL
same,MIC50,C. lusitaniae,0.5 µg/mL
same,MIC90,C. lusitaniae,1.0 µg/mL
same,MIC Range,C. lusitaniae,0.25 to 1.0 µg/mL
same,ALB (Albumin),[2]; [3],3.2
same,ALK (Alkaline Phosphatase),[2]; [3],74
same,ALT (Alanine Aminotransferase),[2]; [3],37
same,BUN (Blood Urea Nitrogen),[2]; [3],15
same,Creat (Creatinine),[2]; [3],0.6
same,GLOB (Globulin),[2]; [3],2.6
same,Na (Sodium),[2]; [3],140
same,ALB (Albumin),[2]; [4],3.2
same,ALK (Alkaline Phosphatase),[2]; [4],61
same,ALT (Alanine Aminotransferase),[2]; [4],37
same,BUN (Blood Urea Nitrogen),[2]; [4],16
same,Creat (Creatinine),[2]; [4],0.6
same,GLOB (Globulin),[2]; [4],2.7
same,Na (Sodium),[2]; [4],140
same,TP (Total Protein),[2]; [4],6.0
same,ALB (Albumin),[2]; [5],3.4
same,ALK (Alkaline Phosphatase),[2]; [5],69
same,ALT (Alanine Aminotransferase),[2]; [5],36
same,BUN (Blood Urea Nitrogen),[2]; [5],17
same,Creat (Creatinine),[2]; [5],0.6
same,GLOB (Globulin),[2]; [5],2.4
same,Na (Sodium),[2]; [5],132
same,toxicity,"[2]; rats, intravenously 1.5 mg/kg three times a week over 28 days",No toxicity was observed
